In patent US8765188B2, “Composition for treating and/or preventing osteoporosis” (Taipei Medical University, priority 2011, dated 2014):
Marks after values point to notes of the source that are not given here.

System: ovariectomized rat model of osteoporosis
Experiment: Bone histomorphometry of tibia trabecular bone with micro-CT
Assay type: in vivo
Conditions: OVX rats, DVAB composition 0.2 g/kg, positive 0.1 mg/5 ml/kg ethinylestridiol, 20 weeks
Description: In an ovariectomized rat model of osteoporosis, rats were divided into sham (5 ml/kg ddH2O without ovariectomy) and ovariectomized (OVX) groups. The OVX rats were then subdivided into two groups orally treated with 5 ml/kg ddH2O (control group) and DVAB composition (0.2 g/kg) daily for 20 weeks. The positive group refers to rats receiving 0.1 mg/5 ml/kg of ethinylestridiol.
Biomechanical strength also was measured by three-point bending test of femur and compression test of vertebra. Furthermore, the tibia from rats was measured by cancellous bone histomorphometry with micro-CT. In this study, percentage of bone volume (BV/TV), trabecular thickness (Tb, Th), trabecular number (Tb, N), trabecular separation (Tb, Sp) and structure model index (SMI) were measured.

## C#C[C@]1(O)CC[C@H]2[C@@H]3CCc4cc(O)ccc4[C@H]3CC[C@@]21C [Positive Control, ethinylestridiol]
  BV/TV: 25.69 +/− 10.41* %
  SMI: 1.29 +/− 0.52^#
  Tb.N: 0.0028 +/− 0.0010* 1/μm
  Tb.Sp: 255.99 +/− 94.24* μm
  Tb.Th: 90.29 +/− 4.01 μm
